“And” between values parts separate entries of the source, which are not always exact repeats. Equal entries are not always repeated. Toxic doses and inconclusive results are not listed. No stated cut-off is given here; in the data, active means T/C of 150% or more; inactive means T/C below 125%.
System: L1210 leukemia ip in BDF1 mice, survival T/C
Assay: NCI In Vivo Anticancer Drug Screen. Data for tumor model L1210 Leukemia (intraperitoneal) in B6D2F1 (BDF1) mice
Conditions: endpoint: mean survival time, higher = longer survival
Summary of the method: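 Value reflects the ratio of survival in compound-treated mice to survival in vehicle-treated controls, with both groups carrying the same transplanted tumor.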

[1] = dose: 100.0 mg/kg/injection, schedule: Q01DX001 (ip), vehicle: saline with Tween-80
[2] = dose: 100.0 mg/kg/injection, schedule: Q01DX009 (ip), vehicle: saline with Tween-80
[3] = dose: 100.0 mg/kg/injection, schedule: Q04DX003 (ip), vehicle: saline with Tween-80
[4] = dose: 200.0 mg/kg/injection, schedule: Q01DX001 (ip), vehicle: saline with Tween-80
[5] = dose: 200.0 mg/kg/injection, schedule: Q01DX009 (ip), vehicle: saline with Tween-80
[6] = dose: 200.0 mg/kg/injection, schedule: Q04DX003 (ip), vehicle: saline with Tween-80
[7] = dose: 400.0 mg/kg/injection, schedule: Q01DX001 (ip), vehicle: saline with Tween-80
[8] = dose: 400.0 mg/kg/injection, schedule: Q01DX009 (ip), vehicle: saline with Tween-80
[9] = dose: 400.0 mg/kg/injection, schedule: Q04DX003 (ip), vehicle: saline with Tween-80
[10] = dose: 100.0 mg/kg/injection, schedule: Q01DX009 (ip), vehicle: Klucel (hydroxypropylcellulose) (HPC)
[11] = dose: 100.0 mg/kg/injection, schedule: Q04DX003 (ip), vehicle: Klucel (hydroxypropylcellulose) (HPC)
[12] = dose: 200.0 mg/kg/injection, schedule: Q01DX009 (ip), vehicle: Klucel (hydroxypropylcellulose) (HPC)
[13] = dose: 200.0 mg/kg/injection, schedule: Q04DX003 (ip), vehicle: Klucel (hydroxypropylcellulose) (HPC)
[14] = dose: 400.0 mg/kg/injection, schedule: Q01DX009 (ip), vehicle: Klucel (hydroxypropylcellulose) (HPC)
[15] = dose: 100.0 mg/kg/injection, schedule: Q01DX001 (ip), vehicle: carboxymethylcellulose (CMC)
[16] = dose: 200.0 mg/kg/injection, schedule: Q01DX001 (ip), vehicle: carboxymethylcellulose (CMC)
[17] = dose: 400.0 mg/kg/injection, schedule: Q01DX001 (ip), vehicle: carboxymethylcellulose (CMC)
[18] = dose: 100.0 mg/kg/injection, schedule: Q04DX002 (ip), vehicle: saline with Tween-80
[19] = dose: 200.0 mg/kg/injection, schedule: Q04DX002 (ip), vehicle: saline with Tween-80
[20] = dose: 400.0 mg/kg/injection, schedule: Q04DX002 (ip), vehicle: saline with Tween-80
[21] = dose: 100.0 mg/kg/injection, schedule: Q01DX001 (ip), vehicle: saline
[22] = dose: 200.0 mg/kg/injection, schedule: Q01DX001 (ip), vehicle: saline
[23] = dose: 400.0 mg/kg/injection, schedule: Q01DX001 (ip), vehicle: saline
[24] = dose: 50.0 mg/kg/injection, schedule: Q01DX009 (ip), vehicle: saline
[25] = dose: 100.0 mg/kg/injection, schedule: Q01DX009 (ip), vehicle: saline
[26] = dose: 100.0 mg/kg/injection, schedule: Q04DX003 (ip), vehicle: saline
[27] = dose: 200.0 mg/kg/injection, schedule: Q04DX003 (ip), vehicle: saline
[28] = dose: 200.0 mg/kg/injection, schedule: Q01DX009 (ip), vehicle: saline
[29] = dose: 400.0 mg/kg/injection, schedule: Q01DX009 (ip), vehicle: saline
[30] = dose: 100.0 mg/kg/injection, schedule: Q04DX002 (ip), vehicle: Klucel (hydroxypropylcellulose) (HPC)

Measured: T/C

C=CCN(CC=C)/N=N\c1nc[nH]c1C(=O)OC
inactive: [1] 100 % of control | [2] 109 % of control | [3] 98 % of control | [4] 102 % of control | [5] 95 % of control | [6] 98 % of control | [7] 98 % of control | [8] 93 % of control | [9] 96 % of control

C/C(=C\C(=O)Nc1ncn[nH]1)Nc1ncn[nH]1
inactive: [10] 100 % of control | [11] 95 % of control | [12] 92 % of control | [13] 106 % of control | [14] 102 % of control | dose: 400.0 mg/kg/injection, schedule: Q04DX003 (ip), vehicle: Klucel (hydroxypropylcellulose) (HPC) 93 % of control

O=C(Nc1cccc(Cl)c1Cl)Oc1ccc2ccccc2c1
inactive: [10] 100 % of control | [12] 105 % of control | [14] 103 % of control

Cc1ccc2c(c1)=N/C(=N\c1nc(O)c(O)[nH]1)N=2
inactive: [3] 97 % of control | [6] 108 % of control | [9] 103 % of control

O=C(CCc1ccncc1)c1ccccc1
inactive: dose: 50.0 mg/kg/injection, schedule: Q01DX001 (ip), vehicle: carboxymethylcellulose (CMC) 114 % of control | [15] 102 % of control | [16] 102 % of control | [17] 102 % of control

O=C(Nc1ccccc1C(F)(F)F)Oc1ccc(Cl)cc1Cc1ccccc1
inactive: [2] 93 % of control | [18] 117 % of control | [5] 101 % of control | [19] 98 % of control | [8] 101 % of control | [20] 98 % of control

COc1nc(Cl)nc(Cl)n1
inactive: dose: 6.0 mg/kg/injection, schedule: Q01DX Z (ip), vehicle: methylcellulose (MC) 89 % of control

O=C1N(CCO)CNC1(c1ccccc1)c1ccccc1
inactive: [1] 102 % of control | [4] 98 % of control

Cc1ccc(NC(=O)Oc2ccc([N+](=O)[O-])cc2)cc1S(=O)(=O)F
inactive: [1] 100 % of control and 101 % of control | [2] 98 % of control and 101 % of control | [18] 94 % of control and 99 % of control | [3] 98 % of control and 102 % of control | [4] 97 % of control and 100 % of control | [5] 103 % of control and 109 % of control | [19] 100 % of control and 90 % of control | [6] 94 % of control and 102 % of control | [7] 104 % of control and 107 % of control | [20] 96 % of control and 101 % of control | [9] 98 % of control

CN(C)C(c1ccccc1)c1ccccc1
inactive: dose: 50.0 mg/kg/injection, schedule: Q01DX001 (ip), vehicle: saline 96 % of control | [21] 94 % of control | [22] 94 % of control | [23] 94 % of control

O=[As](O)(O)c1ccc(N=NSc2ncnc3nc[nH]c23)cc1
inactive: dose: 7.5 mg/kg/injection, schedule: Q01DX015 (ip), vehicle: carboxymethylcellulose (CMC) 112 % of control | dose: 15.0 mg/kg/injection, schedule: Q01DX015 (ip), vehicle: carboxymethylcellulose (CMC) 115 % of control

CN1CC(COC(=O)CCc2ccc(N(CCCl)CCCl)cc2)C=C2c3cccc4[nH]cc(c34)C[C@H]21 (stereo partly specified)
inactive: dose: 3.12 mg/kg/injection, schedule: Q01DX009 (ip), vehicle: saline 104 % of control | dose: 6.25 mg/kg/injection, schedule: Q01DX009 (ip), vehicle: saline 108 % of control | dose: 12.5 mg/kg/injection, schedule: Q01DX009 (ip), vehicle: saline 110 % of control and 114 % of control | dose: 25.0 mg/kg/injection, schedule: Q01DX009 (ip), vehicle: saline 117 % of control | dose: 25.0 mg/kg/injection, schedule: Q04DX003 (ip), vehicle: saline 93 % of control and 107 % of control | [24] 117 % of control | dose: 50.0 mg/kg/injection, schedule: Q04DX003 (ip), vehicle: saline 109 % of control and 117 % of control | [25] 91 % of control | [26] 112 % of control | [27] 124 % of control

CCCCSP(=S)(SCCCC)SCCCC
inactive: dose: 100.0 mg/kg/injection, schedule: Q01DX001 (ip), vehicle: Klucel (hydroxypropylcellulose) (HPC) 94 % of control | [2] 105 % of control | dose: 200.0 mg/kg/injection, schedule: Q01DX001 (ip), vehicle: Klucel (hydroxypropylcellulose) (HPC) 94 % of control | [5] 105 % of control | dose: 400.0 mg/kg/injection, schedule: Q01DX001 (ip), vehicle: Klucel (hydroxypropylcellulose) (HPC) 97 % of control | [8] 102 % of control

C=C1C=C(C)N(C(C)=O)CCN1C(C)=O
inactive: [25] 95 % of control | [28] 92 % of control | [29] 90 % of control

O=C(Nc1ccc(Cl)cc1C(=O)c1ccccc1)c1ccc(Cl)cc1Cl
inactive: [30] 103 % of control | dose: 400.0 mg/kg/injection, schedule: Q04DX002 (ip), vehicle: Klucel (hydroxypropylcellulose) (HPC) 89 % of control

NC(N)=NC(N)=Nc1ccccc1Br
inactive: dose: 50.0 mg/kg/injection, schedule: Q01DX009 (ip), vehicle: Klucel (hydroxypropylcellulose) (HPC) 106 % of control | [10] 104 % of control | [30] 107 % of control | [11] 98 % of control | dose: 200.0 mg/kg/injection, schedule: Q04DX002 (ip), vehicle: Klucel (hydroxypropylcellulose) (HPC) 104 % of control | [13] 110 % of control

CCN(CC)c1cc(C)c2cc(Cc3ccccc3)ccc2n1
inactive: [15] 98 % of control | [16] 96 % of control | [17] 101 % of control

COP1(=O)OC(C)C(C)O1 (stereo unspecified)
inactive: [21] 98 % of control | [22] 102 % of control | [23] 93 % of control

N#CC1c2ccccc2CCN1C(=O)c1ccccc1 (stereo unspecified)
inactive: [15] 98 % of control | [16] 98 % of control | [17] 93 % of control

OC1OCCOC1O (stereo unspecified)
inactive: [24] 100 % of control | [25] 100 % of control | [28] 109 % of control | [29] 103 % of control

COC(=O)c1ccc(C(=O)OC)[n+]([O-])c1
inactive: [25] 102 % of control | [26] 103 % of control | [28] 106 % of control | [27] 108 % of control | dose: 266.0 mg/kg/injection, schedule: Q04DX003 (ip), vehicle: saline 93 % of control | [29] 106 % of control | dose: 400.0 mg/kg/injection, schedule: Q04DX003 (ip), vehicle: saline 101 % of control | dose: 600.0 mg/kg/injection, schedule: Q04DX003 (ip), vehicle: saline 90 % of control

O=C(CCCN1CC=C(N2CCc3ccccc32)CC1)c1ccc(F)cc1
inactive: [3] 102 % of control | [6] 102 % of control
